Test results taken from US9428464B2, “Kynurenine-3-monooxygenase inhibitors, pharmaceutical compositions, and methods of use thereof” (CHDI Foundation, Inc., priority 2011, dated 2016).

Test system: KMO
Assay: KMO activity assay: L-Kynurenine hydroxylation to 3-Hydroxy-Kynurenine, quantified by LC/MS
Type: biochemical
Conditions: compound at 10 uM; footnote: some portion of activity of amides may be due to contribution of acid precursor
Summary of the method: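 Enzyme: KMO from mitochondria isolated from CHO cells expressing GST-His-KMO, with L-kynurenine as substrate (stock 10 mM in 100 mM potassium phosphate, pH 7.4). Conversion to 3-hydroxy-kynurenine quantified by LC/MS multiple reaction monitoring; compound stocks 10 mM in DMSO.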

Row | SMILES | % Inhibition at 10 uM [%]
1 | O=C(Nc1ccc(OCCN2CCOCC2)cc1)c1cc(-c2ccc(Cl)c(Cl)c2)ncn1 [6-(3,4-Dichloro-phenyl)-pyrimidine-4-carboxylic acid [4-(2-morpholin-4-yl-ethoxy)-phenyl]-amide] | 100.44
2 | CN1CCN(c2ccc(NC(=O)c3cc(-c4ccc(Cl)c(Cl)c4)ncn3)cc2)CC1.Cl [6-(3,4-Dichloro-phenyl)-pyrimidine-4-carboxylic acid [4-(4-methyl-piperazin-1-yl)-phenyl]-amide hydrochloride salt] | 89.6
3 | CC(C)(O)c1nnc(NC(=O)c2cc(-c3ccc(Cl)c(Cl)c3)ncn2)o1 [6-(3,4-Dichloro-phenyl)-pyrimidine-4-carboxylic acid [5-(1-hydroxy-1-methyl-ethyl)-[1,3,4]oxadiazol-2-yl]-amide] | 102.115
4 | Cl.O=C(Nc1ccc(OCCN2CCOCC2)nc1)c1cc(-c2ccc(Cl)c(Cl)c2)ncn1 [6-(3,4-Dichloro-phenyl)-pyrimidine-4-carboxylic acid [6-(2-morpholin-4-yl-ethoxy)-pyridin-3-yl]-amide hydrochloride salt] | 86.37
5 | CNC(=O)c1cc(-c2ccc(Cl)c(Cl)c2)ncn1 [6-(3,4-Dichloro-phenyl)-pyrimidine-4-carboxylic acid methylamide] | 100.31
6 | O=C(Nc1ncco1)c1cc(-c2ccc(Cl)c(Cl)c2)ncn1 [6-(3,4-Dichloro-phenyl)-pyrimidine-4-carboxylic acid oxazol-2-yl-amide] | 101.04
7 | O=C(Nc1cnccn1)c1cc(-c2ccc(Cl)c(Cl)c2)ncn1 [6-(3,4-Dichloro-phenyl)-pyrimidine-4-carboxylic acid pyrazin-2-yl-amide] | 100.28
8 | O=C(Nc1cccnn1)c1cc(-c2ccc(Cl)c(Cl)c2)ncn1 [6-(3,4-Dichloro-phenyl)-pyrimidine-4-carboxylic acid pyridazin-3-yl-amide] | 100.38
9 | Cc1nc(C(=O)O)cc(-c2ccc(F)c(F)c2)n1 [6-(3,4-Difluoro-phenyl)-2-methyl-pyrimidine-4-carboxylic acid] | 100
10 | C[C@H](NC(=O)c1cc(-c2ccc(F)c(F)c2)ncn1)c1ccccc1 [6-(3,4-Difluoro-phenyl)-pyrimidine-4-carboxylic acid ((S)-1-phenyl-ethyl)-amide] | 100.39
11 | CON(C)C(=O)c1cc(-c2ccc(Cl)c(Cl)c2)ncn1 [6-(3,4-dichloro-phenyl)-pyrimidine-4-carboxylic acid methoxy-methyl-amide] | 103.74
12 | O=C(O)c1ncnc(-c2ccc(Cl)c(Cl)c2)c1CO [6-(3,4-dichlorophenyl)-5-(hydroxymethyl)pyrimidine-4-carboxylate] | 95
13 | O=C(NO)c1cc(-c2ccc(Cl)c(Cl)c2)ncn1 [6-(3,4-dichlorophenyl)-N-hydroxypyrimidine-4-carboxamide] | 73
14 | Cc1nnc(NC(=O)c2cc(-c3cccc(Br)c3)ncn2)o1 [6-(3-Bromo-phenyl)-pyrimidine-4-carboxylic acid (5-methyl-[1,3,4]oxadiazol-2-yl)-amide] | 102.59
15 | O=C(O)c1cc(-c2cccc(Br)c2)ncn1 [6-(3-Bromo-phenyl)-pyrimidine-4-carboxylic acid] | 102.1
16 | O=C(Nc1cccnc1)c1cc(-c2cccc(Cl)c2F)ncn1 [6-(3-Chloro-2-fluoro-phenyl)-pyrimidine-4-carboxylic acid pyridin-3-yl-amide] | 100.83
17 | C[C@H](NC(=O)c1cc(-c2ccc(F)c(Cl)c2)ncn1)c1ccccc1 [6-(3-Chloro-4-fluoro-phenyl)-pyrimidine-4-carboxylic acid ((S)-1-phenyl-ethyl)-amide] | 89.07

Row | SMILES | % Inhibition at 10 uM [%]
18 | Cc1noc(C)c1NC(=O)c1cc(-c2cccc(Cl)c2)ncn1 [6-(3-Chloro-phenyl)-pyrimidine-4-carboxylic acid (3,5-dimethyl-isoxazol-4-yl)-amide] | 89.92
19 | C[C@H](NC(=O)c1cc(-c2cccc(Cl)c2)ncn1)c1ccncc1 [6-(3-Chloro-phenyl)-pyrimidine-4-carboxylic acid ((S)-1-pyridin-4-yl-ethyl)-amide] | 96.86
20 | C[C@H](NC(=O)c1cc(-c2cccc(F)c2)ncn1)c1ccccc1 [6-(3-Fluoro-phenyl)-pyrimidine-4-carboxylic acid ((S)-1-phenyl-ethyl)-amide] | 90.15
21 | O=C(Nc1cncnc1)c1cc(-c2cccc(F)c2)ncn1 [6-(3-Fluoro-phenyl)-pyrimidine-4-carboxylic acid pyrimidin-5-yl-amide] | 81.88
22 | Cc1ccc(NC(=O)c2cc(-c3ccc(Cl)c(F)c3)ncn2)c(C)n1 [6-(4-Chloro-3-fluoro-phenyl)-pyrimidine-4-carboxylic acid (2,6-dimethyl-pyridin-3-yl)-amide] | 52.81
23 | C[C@H](NC(=O)c1cc(-c2ccc(Cl)c(F)c2)ncn1)c1ccccc1 [6-(4-Chloro-3-fluoro-phenyl)-pyrimidine-4-carboxylic acid ((S)-1-phenyl-ethyl)-amide] | 46.62
24 | C[C@H](NC(=O)c1cc(-c2ccc(Cl)cc2)ncn1)c1ccccc1 [6-(4-Chloro-phenyl)-pyrimidine-4-carboxylic acid ((S)-1-phenyl-ethyl)-amide] | 68.94
25 | O=C(Nc1cccnc1)c1cc(-c2ccc(Cl)cc2)ncn1 [6-(4-Chloro-phenyl)-pyrimidine-4-carboxylic acid pyridin-3-yl-amide] | 67.93
26 | O=C(Nc1cncnc1)c1cc(-c2ccc(Cl)cc2)ncn1 [6-(4-Chloro-phenyl)-pyrimidine-4-carboxylic acid pyrimidin-5-ylamide] | 56.49
27 | C[C@H](NC(=O)c1cc(-c2cc(Cl)ccc2F)ncn1)c1ccccc1 [6-(5-Chloro-2-fluoro-phenyl)-pyrimidine-4-carboxylic acid ((S)-1-phenyl-ethyl)-amide] | 68.66
28 | O=C(Nc1cccnc1)c1cc(-c2cc(Cl)ccc2F)ncn1 [6-(5-Chloro-2-fluoro-phenyl)-pyrimidine-4-carboxylic acid pyridin-3-yl-amide] | 84.21
29 | O=C(O)c1cc(-c2ccc3ccccc3c2)ncn1 [6-Naphthalen-2-yl-pyrimidine-4-carboxylic acid] | 96
30 | N[C@@H](CCCCNC(=O)c1cc(-c2ccc(Cl)c(Cl)c2)ncn1)C(=O)O [(2S)-2-amino-6-{[6-(3,4-dichlorophenyl)pyrimidin-4-yl]formamido}hexanoic acid] | 85
31 | O=C1NC(=O)[C@@H]2CN(C(=O)c3cc(-c4ccc(Cl)c(Cl)c4)ncn3)C[C@H]12 [(3aS,6aR)-5-[6-(3,4-Dichloro-phenyl)-pyrimidine-4-carbonyl]-tetrahydro-pyrrolo[3,4-c]pyrrole-1,3-dione] | 95.73
32 | O=C(c1cc(-c2ccc(Cl)c(Cl)c2)ncn1)N1CCc2ccc(Cl)cc21 [(6-Chloro-2,3-dihydro-indol-1-yl)-[6-(3,4-dichloro-phenyl)-pyrimidin-4-yl]-methanone] | 98.22
33 | N[C@H]1CCN(C(=O)c2cc(-c3ccc(Cl)c(Cl)c3)ncn2)C1 [((S)-3-amino-pyrrolidin-1-yl)-[6-(3,4-dichloro-phenyl)-pyrimidin-4-yl]-methanone] | 93.99
